Reference: patent US7858295B2, “Methods for prolonging survival of platelets using UDP-galactose” (Velico Medical, Inc., priority 2002, dated 2010)

What was measured:
THP-1 cells = experiment: In vitro phagocytic assay: ingestion of CM-Orange-labeled chilled or room temperature human platelets by THP-1 phagocytes (flow cytometry); format: cell-based; settings: for inhibitory effect on chilled platelet phagocytosis (in words) / % inhibition phagocytosis: chilled platelets; for inhibitory effect on chilled platelet phagocytosis (in words): various concentrations; for inhibitory effect on RT platelet phagocytosis (in words): room temperature platelets
Protocol: CR3 expression was monitored by flow cytometry using a PE-conjugated anti-human CD11b/Mac-1 mAb. Undifferentiated or differentiated THP-1 cells (2×10^6/ml) were plated onto 24-well plates and allowed to adhere for 45 minutes at 37° C. The adherent undifferentiated or differentiated macrophages were activated by the addition of 15 ng/ml PMA for 15 min. CM-range-labeled, chilled or room temperature platelets (10^7/well), previously subjected to different treatments were added to the undifferentiated or differentiated phagocytes in Ca^2+- and Mg^2+-containing HBSS and incubated for 30 min at 37° C. Following the incubation period, the phagocyte monolayer was washed with HBSS for 3 times, and adherent platelets were removed by treatment with 0.05% trypsin/0.53 mM EDTA in HBSS at 37° C. for 5 min followed by 5 mM EDTA at 4° C. to detach the macrophages for flow cytometric analysis of adhesion or ingestion of platelets (Brown et al., 2000). […] CM-Orange-labeled platelets incubated with macrophages were resolved from the phagocytes according to their forward and side scatter properties. The macrophages were gated, 10,000 events acquired for each sample, and data analyzed with CELLQuest software (Becton Dickenson).
To analyze the effects of monosaccharides on platelet phagocytosis, phagocytes (differentiated monocytic cell line THP-1) were incubated in monosaccharide solutions at various concentrations, and the chilled or room temperature platelets were added. Values in the Figures are means±SD of 3-5 experiments comparing percentages of orange-positive monocytes containing ingested platelets incubated with RT or chilled platelets).

human platelets = experiment: FITC-lectin (WGA, S-WGA, RCA I) binding to chilled or room temperature platelets by flow cytometry; format: cell-based; settings: alone
Protocol: We then investigated whether wheat germ agglutinin (WGA), a lectin with specificity towards the terminal sugar (GlcNAc), binds more effectively to chilled platelets than to room temperature platelets. Washed, chilled or room temperature platelets were incubated with 2 μg/ml of FITC coupled WGA or FITC coupled succinyl-WGA for 30 min at room temperature and analyzed by flow cytometry. FIGS. 9A and 9B show the dot plots after incubation with FITC-WGA of room temperature (RT) or chilled (Cold) human platelets.
To analyze whether removal of GlcNAc residues reduces the binding of WGA to the platelet surface, chilled and room temperature washed human platelets were treated with 100 U/ml β-Hex for 30 min at 37° C.

SMILES | inhibitory effect on chilled platelet phagocytosis (in words) (THP-1 cells) | inhibitory effect on RT platelet phagocytosis (in words) (THP-1 cells) | also measured
O=C[C@@H](O)[C@@H](O)[C@H](O)[C@H](O)CO [D-(+)-mannose] | no inhibitory effect | no inhibitory effect | 
O=C[C@H](O)[C@@H](O)[C@@H](O)[C@H](O)CO [D-(+)-galactose] |  |  | % inhibition phagocytosis (THP-1 cells; phagocytes incubated with 100 mM monosaccharide): did not significantly inhibit
O=c1ccn([C@@H]2O[C@H](COP(=O)(O)OP(=O)(O)O)[C@@H](O)[C@H]2O)c(=O)[nH]1 [UDP] |  |  | effect on S-WGA or RCA I binding to chilled or room temperature human platelets (human platelets): no effect
CO[C@@H]1O[C@H](CO)[C@@H](O)[C@H](O)[C@@H]1O [Methyl-β-D-mannopyranoside] | no inhibitory effect | no inhibitory effect | 
CC(=O)N[C@@H]1[C@@H](O)[C@H](O)[C@@H](CO)O[C@H]1O [β-GlcNac] | strongly inhibited |  | % inhibition phagocytosis (THP-1 cells; 0.01 mM (10 μM) monosaccharide, listed as β-anomer of GlcNAc): 80%
CO[C@H]1O[C@H](CO)[C@@H](O)[C@H](O)[C@@H]1O [Methyl-α-D-mannopyranoside] | no inhibitory effect | no inhibitory effect | 
CC(=O)N[C@H]1C(O)O[C@H](CO)[C@@H](O)[C@@H]1O (stereo partly drawn) [GlcNac, N-acetyl-D-glucosamine] | significantly inhibited |  | 
COC1OC(CO)C(O)C(O)C1O [Methyl-β-D-gludopyranoside] | dose-dependent manner |  | 
CO[C@H]1O[C@H](CO)[C@@H](O)[C@H](O)[C@H]1O [Methyl-α-D-glucopyranoside] | did not have an inhibitory effect |  | 
